Assay results reported in patent publication US20130023553A1, “PEGYLATED OPIOIDS WITH LOW POTENTIAL FOR ABUSE AND SIDE EFFECTS” (Nektar Therapeutics, priority 2010, published 2013).
“Also recorded” adds a separate entry of the source.

Experiments:
Sprague-Dawley rats [1] = test: Abuse liability: three-day substitution test in rats trained to self-administer cocaine; settings: i.v. self-administration
Sprague-Dawley rats [2] = test: Abuse liability: progressive ratio test in rats trained to self-administer cocaine; type: in vivo; settings: for reinforcing behavior, progressive ratio: all doses tested
Method: In the three-day rat substitution tests, rats trained to self-administer cocaine were exposed to saline or test article via intravenous bolus infusions for one hour sessions on three consecutive days.
The rate of self-administration is determined not only by reinforcing effects of drug but also by the direct effects of the drug on motor behavior. To measure reinforcing effects in a quantitative way, a procedure was utilized in which responding was determined by reinforcing effects uncontaminated with other drug effects. […] See, e.g., Griffiths R R, Brady J V, Bradford L D. Advances in Behavioral Pharmacology (Vol 2).
Under this schedule, the animal responds on the lever for delivery of test article. For each subsequent drug delivery the total number of responses emitted on the lever required for drug delivery was incremented upward using a logarithmic (base e) scale using the following equation:
Response requirement=5*e^(response increment*0.2)−5
The progressive “break point” is defined as the highest number of responses emitted by the animal to earn a single reinforcer delivery of drug or vehicle. This break point is used as a behavioral marker of how much work will be expended by an experimental subject to earn a single reinforcer delivery. The amount of work expended to earn a single reinforcer is used to compare the efficacy of drug deliveries with respect to the hedonic valence induced by the drug injection with the assumption that the subjective hedonic valence of a reinforcer determines its abuse liability.

human mu opioid receptor = target: T1, human mu opioid receptor (Homo sapiens, UniProt P35372); test: biochemical; type: binding; settings: CHO-K1 membranes, [3H]DAMGO 6 nM; read-out: Ki, Mu opioid receptor
T1 construct: expressed in transfected cells; host or cells: CHO cells
T1 sequence (P35372 whole entry): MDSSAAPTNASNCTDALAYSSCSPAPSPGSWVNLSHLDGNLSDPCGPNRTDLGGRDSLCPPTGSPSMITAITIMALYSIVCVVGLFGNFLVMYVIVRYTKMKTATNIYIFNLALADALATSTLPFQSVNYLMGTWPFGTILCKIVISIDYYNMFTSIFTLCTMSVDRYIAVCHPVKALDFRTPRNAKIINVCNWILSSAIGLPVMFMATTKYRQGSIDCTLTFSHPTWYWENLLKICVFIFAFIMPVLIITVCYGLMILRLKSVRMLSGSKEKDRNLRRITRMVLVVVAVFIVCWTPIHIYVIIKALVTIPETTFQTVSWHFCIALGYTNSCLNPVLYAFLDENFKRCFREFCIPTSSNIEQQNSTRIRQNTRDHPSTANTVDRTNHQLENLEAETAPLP

Sprague-Dawley male rats = test: Motor coordination (sedation) on the rotarod treadmill; type: in vivo; settings: for sedation compared to oxycodone: equianalgesic dose
Method: The following studies were conducted to evaluate the effect of orally administered PEG-6-O-hydroxycodone on motor coordination (i.e., sedation) in rats using the rat rotarod Treadmill. Motor coordination was evaluated at 0.5 h and 1 h post-dose.
The rats weighed between 240 to 280 grams on the day of study. Rats were not fasted prior to dosing.
Animals were trained to run on the treadmill for 2 consecutive days prior to the day of study. Animals were trained at a constant speed of 10 RPM and were given as many trials as necessary until they were able to stay on the rotarod for 300 seconds. Rats that were able to stay on the rod for 300 seconds were considered trained. On the day of study, animals were placed on the rotarod treadmill at 0, 30, and 60 minutes post dose. The treadmill was set at a constant speed of 4 RPM for 15 seconds, at this point the timer was started (T=0). After this 15 second period, the rotarod was set to accelerate from 4-40 RPM over a five minute period (using the built in program of the rotarod). The time (in seconds) that each animal stopped running and tripped the plate was recorded as the animal's run time. Animals that ran for 300 seconds were taken of the treadmill and 300 seconds was recorded as the run time.
The objective of this study was to evaluate the effect of 10, 30, 100, and 300 mg/kg of PEG-6-O-hydroxycodone on motor coordination in rats using the rotarod treadmill. All doses were administered orally and evaluated at 0.5 h and 1 h post-dose.

[3] = listed as mPEG6-O-hydroxycodone

COCCOCCOCCOCCOCCOCCOC1CCC2(O)C3Cc4ccc(OC)c5c4C2(CCN3C)C1O5 (stereo not drawn) [α-6-mPEG6-O-hydroxycodone, α-6-mPEG6-O-oxycodone]
reinforcing behavior, three-day substitution (Sprague-Dawley rats [1]): no reinforcing behavior was observed; also recorded: lack of reinforcing behavior
reinforcing behavior, three-day substitution (Sprague-Dawley rats [1]; [3]): no behavioral evidence of positive reinforcement
progressive ratio break point (Sprague-Dawley rats [2]; 1.0 mg/kg/injection): 21
reinforcing behavior, progressive ratio (Sprague-Dawley rats [2]): no reinforcing behavior was observed; also recorded: no reinforcing behaviour was exhibited
reinforcing behavior, progressive ratio (Sprague-Dawley rats [2]; [3]): showed no reinforcing properties and behaved like saline
Ki (human mu opioid receptor): 1900 nM
motor impairment, overall (Sprague-Dawley male rats; 300 mg/kg oral, 0.5 h and 1 h post-dose): slight motor impairment
rotarod performance, overall (Sprague-Dawley male rats; 10, 30, 100 mg/kg oral): failed to impair rotarod performance
sedation compared to oxycodone (Sprague-Dawley male rats; listed as PEG-6-O-hydroxycodone): produces less sedation than the parent opioid
sedation compared to oxycodone (Sprague-Dawley male rats; [3]): less sedation
time spent on the rotarod compared to saline control (Sprague-Dawley male rats; initial study, 30 mg/kg oral, 0.5 h post-dose): showed a reduction in time spent on the rotarod
rotarod performance compared to saline control (Sprague-Dawley male rats; initial study, 10, 100 or 300 mg/kg oral, 0.5 h and 1 h post-dose): did not exhibit impaired rotarod performance
time spent on rotarod compared to saline control (Sprague-Dawley male rats; repeated study, 300 mg/kg oral, 0.5 h and 1 h post-dose): showed a reduction in time spent on rotarod
rotarod performance compared to saline control (Sprague-Dawley male rats; repeated study, 10, 30 or 100 mg/kg oral, 0.5 h and 1 h post-dose): did not demonstrate impaired rotarod performance
